Where a name gives a salt, the structure may show the parent alone.

Take `CCC(CC)(Cc1ccc(C)cc1)NC(=O)c1cnn2c1NC(c1ccccc1)CC2(C)C` (stereo not drawn) [Example 703, N-(1-ethyl-1-(4-methylbenzyl)propyl)-7,7-dimethyl-5-phenyl-4,5,6,7-tetrahydropyrazolo[1,5-a]pyrimidine-3-carboxamide]: the melting point was in the range of 150 to 151 °C.
As for `CCc1nn2c(c1C(=O)NC(CC)(CC)c1ccc(Cl)cc1)NC(c1ccccc1)CC2(C)C` (stereo not drawn) [Example 758, N-(1-(4-chlorophenyl)-1-ethylpropyl)-2-ethyl-7,7-dimethyl-5-phenyl-4,5,6,7-tetrahydropyrazolo[1,5-a]pyrimidine-3-carboxamide], the figure is 183 to 184 °C.
To `CCC(CC)(NC(=O)c1cnn2c1NC(c1ccccc1)CC2(C)C)c1ccc(-c2cccnc2)cc1` (stereo not drawn) (as salt: HCl) [Example 583, N-(1-ethyl-1-(4-(3-pyridinyl)phenyl)propyl)-7,7-dimethyl-5-phenyl-4,5,6,7-tetrahydropyrazolo[1,5-a]pyrimidine-3-carboxamide] belongs 168 to 169 °C; to `CCC(CC)(NC(=O)c1cnn2c1NC(c1ncc(C)s1)CC2(C)C)c1ccc(F)cc1` (stereo not drawn) [Example 602, N-(1-ethyl-1-(4-fluorophenyl)propyl)-7,7-dimethyl-5-(5-methyl-1,3-thiazol-2-yl)-4,5,6,7-tetrahydropyrazolo[1,5-a]pyrimidine-3-carboxamide], 163.5 to 163.6 °C.
As for `CCC(CC)(NC(=O)c1cnn2c1NC(c1ccccc1)CC2(C)C)c1ccc(C(C)(C)C)cc1` (stereo not drawn) [Example 417, N-(1-(4-tert-butylphenyl)-1-ethylpropyl)-7,7-dimethyl-5-phenyl-4,5,6,7-tetrahydropyrazolo[1,5-a]pyrimidine-3-carboxamide], the figure is 196 to 197 °C; as for `CCC(CC)(NC(=O)c1c(C)nn2c1N[C@@H](c1ccccc1)CC2(C)C)c1ccc(O)cc1` [Example 1064, (5R)-N-(1-ethyl-1-(4-hydroxyphenyl)propyl)-2,7,7-trimethyl-5-phenyl-4,5,6,7-tetrahydropyrazolo[1,5-a]pyrimidine-3-carboxamide], 160 to 161 °C; as for `CCC(CC)(NC(=O)c1cnn2c1NC(c1ccccc1)CC2(C)C)c1ccc(-c2ccoc2)cc1` (stereo not drawn) [Example 585, N-(1-ethyl-1-(4-(3-furyl)phenyl)propyl)-7,7-dimethyl-5-phenyl-4,5,6,7-tetrahydropyrazolo[1,5-a]pyrimidine-3-carboxamide], 185 to 186 °C.
Compound `CCC(C)(CC)NC(=O)c1cnn2c1NC(c1ccccc1)CC2(C)C` (stereo not drawn) [Example 618, N-(1-ethyl-1-methylpropyl)-7,7-dimethyl-5-phenyl-4,5,6,7-tetrahydropyrazolo[1,5-a]pyrimidine-3-carboxamide] had a melting point of 88 to 89 °C.
Compound `O=C(O)c1cnn2c1NC(c1ccc(Cl)cc1)CC2C(F)(F)F` (stereo not drawn) [Example 26, 5-(4-chlorophenyl)-7-(trifluoromethyl)-4,5,6,7-tetrahydropyrazolo[1,5-a]pyrimidine-3-carboxylic acid] registered a melting point of 186 to 187 °C.
To `CCC(CC)(NC(=O)c1c(SC)nn2c1NC(c1ccccc1)CC2(C)C)c1ccc(Cl)cc1` (stereo not drawn) (as salt: HCl) [Example 780, N-(1-(4-chlorophenyl)-1-ethylpropyl)-7,7-dimethyl-2-(methylthio)-5-phenyl-4,5,6,7-tetrahydropyrazolo[1,5-a]pyrimidine-3-carboxamide] belongs 115 to 117 °C; to `CC1(C)C[C@H](c2ccccc2)Nc2c(C(=O)NC34CC5CC(CC(C5)C3)C4)cnn21` [Example 1030, (5R)-N-1-adamantyl-7,7-dimethyl-5-phenyl-4,5,6,7-tetrahydropyrazolo[1,5-a]pyrimidine-3-carboxamide], 226 to 227 °C; to `CCC(CC)(CCSC)NC(=O)c1cnn2c1NC(c1ccccc1)CC2(C)C` (stereo not drawn) [Example 665, N-(1,1-diethyl-3-(methylthio)propyl)-7,7-dimethyl-5-phenyl-4,5,6,7-tetrahydropyrazolo[1,5-a]pyrimidine-3-carboxamide], 154 to 155 °C.
To `CCC(CC)(NC(=O)c1c(C)nn2c1NC(c1ccccc1F)CC2(C)C)c1ccc(C)cc1` (stereo not drawn) [Example 962, N-[1-ethyl-1-(4-methylphenyl)propyl]-5-(2-fluorophenyl)-2,7,7-trimethyl-4,5,6,7-tetrahydropyrazolo[1,5-a]pyrimidine-3-carboxamide] belongs 139 to 140 °C; to `CCC(CC)(NC(=O)c1c(C)nn2c1NC(c1ccc(C)cc1)CC2(C)C)c1ccc(C)cc1` (stereo not drawn) (as salt: HCl) [Example 973, N-(1-ethyl-1-(4-methylphenyl)propyl)-2,7,7-trimethyl-5-(4-methylphenyl)-4,5,6,7-tetrahydropyrazolo[1,5-a]pyrimidine-3-carboxamide], 152 to 154 °C; to `CCC(CC)(NC(=O)c1cnn2c1NC(c1ccccc1)CC2(C)C)c1ccc(Cl)cc1Cl` (stereo not drawn) [Example 680, N-(1-(2,4-dichlorophenyl)-1-ethylpropyl)-7,7-dimethyl-5-phenyl-4,5,6,7-tetrahydropyrazolo[1,5-a]pyrimidine-3-carboxamide], 220 to 222 °C.
To `CCC(CC)(NC(=O)c1cnn2c1NC(c1ccccc1)CC2(C)C)c1ccc(Cl)nc1` (stereo not drawn) [Example 573, N-(1-(6-chloro-3-pyridinyl)-1-ethylpropyl)-7,7-dimethyl-5-phenyl-4,5,6,7-tetrahydropyrazolo[1,5-a]pyrimidine-3-carboxamide] belongs 223 to 224 °C; to `Cc1ccc(C2CC(C)(C)n3ncc(C(=O)O)c3N2)c(C)c1` (stereo not drawn) [Example 952, 5-(2,4-dimethylphenyl)-7,7-dimethyl-4,5,6,7-tetrahydropyrazolo[1,5-a]pyrimidine-3-carboxylic acid], 155 to 157 °C.
As for `COc1ccccc1C1CC(C(F)(F)F)n2ncc(C(=O)O)c2N1` (stereo not drawn) [Example 30, 5-(2-methoxyphenyl)-7-(trifluoromethyl)-4,5,6,7-tetrahydropyrazolo[1,5-a]pyrimidine-3-carboxylic acid], the melting point was in the range of 189 to 190 °C.
To `CCCCOC(=O)c1ccc(C(CC)(CC)NC(=O)c2cnn3c2NC(c2ccccc2)CC3(C)C)cc1` (stereo not drawn) [Example 757, butyl 4-(1-(((7,7-dimethyl-5-phenyl-4,5,6,7-tetrahydropyrazolo[1,5-a]pyrimidin-3-yl)carbonyl)amino)-1-ethylpropyl)benzoate] belongs 139 to 140 °C.
`CCC(CC)(NC(=O)c1cnn2c1NC(c1ccccc1)CC2(C)C)c1ccc(C(=O)O)cc1` (stereo not drawn) [Example 734, 4-(1-(((7,7-dimethyl-5-phenyl-4,5,6,7-tetrahydropyrazolo[1,5-a]pyrimidin-3-yl)carbonyl)amino)-1-ethylpropyl)benzoic acid] came in with a melting point of 257 to 258 °C.
Compound `CCC(CC)(Cc1ccc(OC)cc1)NC(=O)c1cnn2c1NC(c1ccccc1)CC2(C)C` (stereo not drawn) [Example 704, N-(1-ethyl-1-(4-methoxybenzyl)propyl)-7,7-dimethyl-5-phenyl-4,5,6,7-tetrahydropyrazolo[1,5-a]pyrimidine-3-carboxamide] yielded a melting point of 185 to 186 °C.

By melting point is commonly meant the temperature, or range, at which the solid turns liquid.

Values taken from patent US9447100B2, “Substituted pyrazolo[1,5-A] pyrimidines as calcium receptor modulating agents” (Takeda Pharmaceutical Company Limited, priority 2002, dated 2016).
